Our source for the IC50 and EC50 values is patent US20260070929A1, “METHODS AND COMPOSITIONS FOR MODULATING KRAS(G12D)” (Ranok Therapeutics (Hangzhou) Co. LTD., priority 2022, published 2026).

Molecules are shown by their SMILES. Bounds are passed on as bounds.

One assay concerns the target T1, KRAS(G12D)/SOS1 (Homo sapiens, UniProt P01116, G12D).
T1 construct: purchased Cisbio 63ADK000CB17PEH
The experiment in a line: KRAS(G12D)/SOS1 homogeneous time-resolved fluorescence (HTRF) assay. It is filed as binding. Conditions: absence of GTP; 4° C., 3 hr. As for the experimental part: Binding of test compounds to KRAS(G12D) target protein, which in turn blocks KRAS(G12D) interaction with the SOS1 protein, was measured in the absences of GTP by homogeneous time-resolved fluorescence using the KRAS-G12D/SOS1 Binding Assay Kit (Cisbio, 63ADK000CB17PEH), following the manufacturer's instructions, except as noted. 3-fold serial dilutions of each test compound were prepared ranging from 20 µM to 1.02 nM. The test compound was mixed and incubated with reaction components, incubated in a sealed plate at 4° C. for 3 hr and fluorescence was measured using a PerkinElmer Envision plate reader. The KRAS(G12D)-SOS1 IC50 values (the concentration of 50% of the maximal inhibition) were calculated using GraphPad Prism 7 software.

Assay [1] concerns A-427 lung carcinoma cells [heterozygous G12D]. The experiment in a line: Cancer cell line proliferation (CellTiter-Glo), A-427. Conditions: Homo sapiens, A-427 cells, 72 hr treatment, read-out: A427 CTG (EC50). It is filed as cell-based. The method, then: (§1) The following cancer cell lines were employed: AGS gastric carcinoma [heterozygous G12D](ATCC, CRL-1739); A-427 lung carcinoma [heterozygous G12D](ATCC, HTB-53); ASPC1 pancreatic adenocarcinoma [homozygous G12D](ATCC, CRL-1682) and SW1990 pancreatic adenocarcinoma [homozygous G12D](ATCC CRL-2172). Cell lines were cultured essentially according to ATCC recommendations.
(§2) AGS, A-427, ASPC1, SW1990, and GP2D cells were plated in 96-well tissue culture plates at 4,000 cells/well and incubated at 37° C./5% CO2 for 72 hr in 100 μl of media. 3-fold serial dilutions of each test compound were prepared ranging from 20 μM to 1.02 nM. Each cell line was then treated with test compounds at various concentrations with a final concentration of 0.5% DMSO/well, and then incubated at 37° C./5% CO2 for 72 hr. 100 µl of CellTiter-Glo® Reagent (Promega Corporation, Madison, WI) was added to each well and processed according manufacturer's protocol. Results were analyzed and EC50 values were calculated in GraphPad 7 software.

The subject of assay [2] is AGS gastric carcinoma cells [heterozygous G12D]. The experiment in a line: Cancer cell line proliferation (CellTiter-Glo), AGS. Conditions: Homo sapiens, 72 hr treatment, read-out: AGS CTG (EC50). The format is cell-based. The method, then:
as §1, §2

T1 sequence (P01116 1-188 isoform P01116-2 G12D): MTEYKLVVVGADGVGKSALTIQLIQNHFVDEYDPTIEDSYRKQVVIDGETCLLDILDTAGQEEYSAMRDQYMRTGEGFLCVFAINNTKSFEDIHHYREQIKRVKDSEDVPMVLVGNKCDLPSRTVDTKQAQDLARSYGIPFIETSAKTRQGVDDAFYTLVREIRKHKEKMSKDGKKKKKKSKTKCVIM

`CCNC(=O)c1nnc(-c2cc(C(C)C)c(O)cc2O)n1-c1ccc(CN2CCN([C@H]3C[C@@H](COc4nc(N5CC6CCC(C5)N6)c5cnc(-c6cccc7cccc(F)c67)c(F)c5n4)N(C)C3)CC2)cc1` [Compound 77] gave an IC50 on KRAS(G12D)/SOS1 of 100 to 1000 nM. Also, the values for the EC50 in assay [1] and in assay [2] were 100 to 1000 nM and below 100 nM, respectively.

`Cc1c(F)cccc1-c1ncc2c(N3CC4CCC(C3)N4)nc(OC[C@@H]3C[C@H](N4CCN(Cc5ccc(-n6c(C(=O)NC(C)C(F)(F)F)nnc6-c6cc(C(C)C)c(O)cc6O)cc5)CC4)CN3C)nc2c1F` (stereo partly drawn) [Compound 78] showed an IC50 against KRAS(G12D)/SOS1 above 1000 nM. Moreover, the EC50 in assay [1] and in assay [2] was 100 to 1000 nM in each case.

`CCc1cc(-c2nnc(C(=O)NCC(F)(F)F)n2-c2ccc(CN3CCN([C@H]4C[C@@H](COc5nc(N6CC7CCC(C6)N7)c6cnc(-c7cccc(F)c7C)c(F)c6n5)N(C)C4)CC3)cc2)c(O)cc1O` [Compound 79] came in with an IC50 against KRAS(G12D)/SOS1 above 1000 nM. The EC50 in assay [1] and in assay [2] was 100 to 1000 nM throughout.

As for `C#Cc1cccc2cccc(-c3ncc4c(N5CC6CCC(C5)N6)nc(OC[C@@H]5C[C@H](N6CCN(CCN(CC)C(=O)c7cc(C(C)C)c(O)cc7O)CC6)CN5C)nc4c3F)c12` [Compound 80], on KRAS(G12D)/SOS1, the IC50 was below 100 nM. In addition, the concentration for a half-maximal effect (EC50) in assay [1] and in assay [2] was above 1000 nM throughout.

For the compound `CCc1cc(-c2nnc(C(=O)NCC(F)(F)F)n2-c2ccc(CN3CCN([C@H]4C[C@@H](COc5nc(N6CC7CCC(C6)N7)c6cnc(-c7cccc(C)c7C)c(F)c6n5)N(C)C4)CC3)cc2)c(O)cc1O` [Compound 81], the half-inhibitory concentration (IC50) against KRAS(G12D)/SOS1 was above 1000 nM. The EC50 in assay [1] and in assay [2] was 100 to 1000 nM throughout.

`Cc1cccc(-c2ncc3c(N4CC5CCC(C4)N5)nc(OC[C@@H]4C[C@H](N5CCN(Cc6ccc(-n7c(C(=O)NC(C)C(F)(F)F)nnc7-c7cc(C(C)C)c(O)cc7O)cc6)CC5)CN4C)nc3c2F)c1C` (stereo partly drawn) [Compound 82] had an IC50 against KRAS(G12D)/SOS1 above 1000 nM. Moreover, the EC50 in assay [1] and in assay [2] was 100 to 1000 nM each time.

As for `CCNC(=O)c1nnc(-c2cc(C(C)C)c(O)cc2O)n1-c1ccc(CN2CCN([C@H]3C[C@@H](COc4nc(N5CC6CNC(C6)C5)c5cnc(-c6cc(O)cc7ccccc67)c(F)c5n4)N(C)C3)CC2)cc1` (stereo partly drawn) [Compound 85], at KRAS(G12D)/SOS1, the half-maximal inhibitory concentration (IC50) was above 1000 nM. Moreover, the EC50 in assay [1] and in assay [2] was 100 to 1000 nM each time.

On KRAS(G12D)/SOS1, `C#Cc1cccc2cc(O)cc(-c3ncc4c(N5CC6CCC(C5)N6)nc(OC[C@@H]5C[C@H](N6CCN(Cc7ccc8c(c7)CN(C(=O)c7cc(C(C)C)c(O)cc7O)C8)CC6)CN5C)nc4c3F)c12` [Compound 86] gave an IC50 below 100 nM. Also, the EC50 in assay [1] and in assay [2] was 100 to 1000 nM throughout.

Compound `C#Cc1cccc2cc(O)cc(-c3ncc4c(N5CC6CCC(C5)N6)nc(OC[C@@H]5C[C@H](N6CCN(Cc7ccc(-n8c(C(=O)NC(C)C)nnc8-c8cc(C(C)C)c(O)cc8O)cc7)CC6)CN5C)nc4c3F)c12` [Compound 87] had an IC50 against KRAS(G12D)/SOS1 below 100 nM. Besides, the EC50 in assay [1] and in assay [2] was 100 to 1000 nM each time.

Turning to `CC(C)NC(=O)c1nnc(-c2cc(C(C)C)c(O)cc2O)n1-c1ccc(CN2CCN([C@H]3C[C@@H](COc4nc(N5CC6CCC(C5)N6)c5cnc(-c6ccccc6C(F)(F)F)c(F)c5n4)N(C)C3)CC2)cc1` [Compound 88], on KRAS(G12D)/SOS1, the concentration for half-maximal inhibition (IC50) is above 1000 nM. In addition, the EC50 is 100 to 1000 nM in assay [1] and below 100 nM in assay [2].

`CCNC(=O)c1nnc(-c2cc(C(C)C)c(O)cc2O)n1-c1ccc(CN2CCC(C(=O)N3CCN([C@H]4C[C@@H](COc5nc(N6CC7CCC(C6)N7)c6cnc(-c7ccccc7C(F)(F)F)c(F)c6n5)N(C)C4)CC3)CC2)cc1` [Compound 89]: at KRAS(G12D)/SOS1, the IC50 was above 1000 nM. For the same compound, the EC50 in assay [1] and in assay [2] was below 100 nM each time.

As to `CC(C)c1cc(C(=O)N2Cc3ccc(CN4CCC(C(=O)N5CCN([C@H]6C[C@@H](COc7nc(N8CC9CCC(C8)N9)c8cnc(-c9ccccc9C(F)(F)F)c(F)c8n7)N(C)C6)CC5)CC4)cc3C2)c(O)cc1O` [Compound 91], at KRAS(G12D)/SOS1, the half-inhibitory concentration (IC50) was above 1000 nM. Further, the EC50 in assay [1] and in assay [2] was 100 to 1000 nM each time.
